Test results taken from patent publication US20060269978A1, “Method and device for monitoring platelet function” (priority 2005, published 2006).

System: platelet function
Experiment: Platelet Reactivity Test (PRT) on fingerprick whole blood of volunteers before and after taking aspirin
Assay type: in vivo
Conditions: human volunteers after taking aspirin, single-passageway cartridge with spring, most volunteers
Experimental: The PRT test is used to activate platelet gel formations using a small (20 microliter) whole blood sample to help identify proper platelet function in the absence of platelet drug therapy and to identify inhibited platelet function in the presence of platelet drug therapy. The test is performed by running a small quantity of blood through a channel restriction that will induce the formation of platelet gels and trap them in a focused area similar to the way platelets are activated and focused in the body.
In use, the cartridge is secured in instrument 400 and preheated for three to five minutes at 33C. The cartridge is then removed from the instrument 400 and 40 μl of blood previously taken from a subject by a pinprick is placed in capillary tube 370, which is already bonded to the capillary tube port 200. The cartridge 150 is then placed back in the instrument 400. The instrument 400 is maintained at 33C. In a preferred embodiment, the cartridge 150 has a bar code that is read by the instrument 400. The instrument 400 will reject the cartridge 150 if the cartridge has been out of the instrument for more than two minutes after the preheating step.
[…] A gel forms and the pumps 350, 351 operate until an end point is reached. […]

Structure (SMILES): CC(=O)Oc1ccccc1C(=O)O [aspirin]
- PRT (platelet reactivity time): greater than 150 seconds
